The values below come from patent US20210354140A1, “MICROFLUIDIC DEVICE AND USES THEREOF” (Bar Ilan University, priority 2020, published 2021).

Series [1] relates to MCF-7 cells. Briefly: Doxorubicin treatment specificity in microfluidic device, MCF-7 cells. As to conditions: drug sensitive MCF7 cells; 24 hours of 10 μM doxorubicin.
In series [2] the test system is MCF-7 cells. Briefly: MCF-7 cell response to a printed drug array, live/dead assay. In kind it is cell-based. As to conditions: drugs spotted at 0, 0.1, 0.5, 0.7 and 1 mM; 2 hours incubation. The procedure:
MCF7 cells response to 4 different drugs (Doxorubicin, Docetaxel, Pacletoxel, Methotrexate) at 4 different concentrations (0.1-1 mM). The drugs were printed on the slide and aligned into drug chamber inside the device. Live/dead assay was performed by double staining dead cells (Red) and live cells (Green).
(§1) The evaluation of anticancer drug effect on cells vitality was conducted in two steps. First, Docetaxel was used, which is one of the first-line chemotherapies used for metastatic breast cancer. Docetaxel, at different concentrations (1 uM, 10 uM and 100 uM), was flown into the microfluidics device for 5 minutes, following the cell accommodation period. Then the cells, were incubated with the drug for 2 hours. Cell feeding, by diffusion, commenced until the experiment was finished. Live/dead assay was applied up to 48 hours following drug administration. After the evaluation of cells response to one drug-Docetaxel the effect was tested of an array of drugs on the cells. The drugs were printed on a glass substrate and their spotted array was aligned to the drug chamber in the microfluidic device.
(§2) Custom assays for cells vitality evaluation were applied. Living cells were stained with Calcein-AM (50 ng/ul in DMEM medium) (Biotest, Israel) which colors the cytoplasm. Dead cells were stained with Propidium Iodide (PI) (Sigma, Israel) (15 ng/ul in DMEM medium), coloring the nuclear. All cells nuclear (live and dead) were stained by Hoechst 33342 stain (Bis-Benzimide H3342 trihydro-chloride, Sigma, Israel) (10 ng/μl in DMEM medium). A solution of all three dyes was prepared and flowed within the chip. The cells were washed with the solution for 20 min at a pressure of 2 psi. Following dyes application, the controlled valves were closed and the device was incubated for 30 min at 37° C. 5% CO2 to allow cells staining. Next, the valves were opened and the device was washed by phenol-free DMEM medium for 15 min, to remove colures remains.
The drugs, Doxorubicin (Doxorubicin hydrochloride, Tocirs, USA), Docetaxel, Paclitaxel Methotrexate (drugs were supplied with the courtesy of Dr. Levanon, The institute of Oncology, Chaim Sheba Medical Center, Israel), were spotted on a microscope slide at 5 different concentrations (0, 0.1, 0.5, 0.7 and 1 mM) and then covered with the microfluidic device, encompassing the thy drugs inside the drug chamber. Cells were seeded on the device and cultured for 2 hours. Then the valve blocking the drug chamber was opened and the drugs were flooded and allowed to diffuse out and incubated with the cells for 2 hours. A different response was observed dynamics to the different drugs, expressed by different mortality rates.

Series [3] has as its system MCF-7/dx (Doxorubicin resistant cells). Briefly: Doxorubicin treatment specificity in microfluidic device, Doxorubicin resistant MCF-7/dx cells. The settings on record: drug resistant MCF7/Dx cells; 24 hours of 10 μM doxorubicin.
Another series has as its system MCF7 cells. Briefly: Live/dead staining assay in microfluidic device after Docetaxel exposure, MCF7 cells. It is filed as cell-based. Also noted: dose or concentration left out as unconfirmed. The settings on record: Docetaxel for 2 hours, 48 hours after seeding; live/dead assay at T0, 5, 24, 48 hours; n=47; vs untreated control. As to the method: The cells were then dissociated from the culture dish at 60-70% confluence with 0.25% trypsin in PBS, resuspended in DMEM containing 10% FBS and introduced into the microfluidic device. […] MCF7/Dx cell line was grown in the presence of 10 ^M doxorubicin and cultured for 4 weeks in drug-free medium prior to use.
The evaluation of anticancer drug effect on cells vitality was conducted in two steps. First, Docetaxel was used, which is one of the first-line chemotherapies used for metastatic breast cancer. […] Then the cells, were incubated with the drug for 2 hours. Cell feeding, by diffusion, commenced until the experiment was finished. Live/dead assay was applied up to 48 hours following drug administration. […]
(§3) Statistical analysis was carried up using Microsoft Excel 2016 Data Analysis package and RStudio (RStudio Team (2015). RStudio: Integrated Development for R. RStudio, Inc., Boston, Mass.) Images were processed with NIS Elements Analysis software (ver. 40.20.01 Nikon, USA). For all experiments, variables are expressed as traditional boxplots, presenting median, maximum, minimum and Interquartiie range (IQR). […] In all cases, significance was defined as p<0.05, one way analysis of variance was evaluated using Anova, while multiple comparison was evaluated using Tukey's range test (post-hoc Anova analysis). […]

Series [4] concerns cells in microfluidic cell chamber. Briefly: Dynamics of cell death following Docetaxel treatment (FIG. 6), PI staining in cell chambers. It is filed as cell-based. The settings on record: Docetaxel 10 uM, 2 hours exposure, 50 drug chambers vs 50 control chambers. The procedure: FIG. 6A: Live images of a representative cell chamber before (T0) and after (up to 20 hours) exposure to Docetaxel (10 uM). Dead cells were stained with Red (PI).
FIG. 6B: Box plot analysis of the mortality rate (%) of cells following 2 hours of exposure to Docetaxel (10 uM)—T0. Nearly 100 cells chambers were analyzed, 50 following drug exposure and 50 control—no drug exposure. […] Two tail paired T-test analysis were conducted.
Custom assays for cells vitality evaluation were applied. Living cells were stained with Calcein-AM (50 ng/ul in DMEM medium) (Biotest, Israel) which colors the cytoplasm. Dead cells were stained with Propidium Iodide (PI) (Sigma, Israel) (15 ng/ul in DMEM medium), coloring the nuclear. […]
Statistical analysis was carried up using Microsoft Excel 2016 Data Analysis package and RStudio (RStudio Team (2015). RStudio: Integrated Development for R. RStudio, Inc., Boston, Mass.) Images were processed with NIS Elements Analysis software (ver. 40.20.01 Nikon, USA). For all experiments, variables are expressed as traditional boxplots, presenting median, maximum, minimum and Interquartiie range (IQR). […] In all cases, significance was defined as p<0.05, one way analysis of variance was evaluated using Anova, while multiple comparison was evaluated using Tukey's range test (post-hoc Anova analysis).

Series [5] deals with dispersed cells and cell clusters. Briefly: cells. It is filed as cell-based. The procedure:
Cells were exposed twice to Docetaxel once at a concentration of 1 μM and 24 hours later re-exposed to 10 μM Docetaxel for a period of 2 hrs. […] P value was determined using two-tail T-test (n=43).
FIG. 9A: Cells were exposed twice to Docetaxel once at a concentration of 1 μM and 48 hours later a second exposure to 10 μM. Images were taken 24 hours after the second drug exposure T24 (which is 120 hours post seeding).
Cells were exposed to 10 μM Docetaxel for 2 hours. The dynamic of cell death was detected using PI staining. […] Monitoring proceeded up to 28 hours.
as §2, with “Next, the valves were opened and the device was washed by phenol-free DMEM medium for 15 min, to remove colures remains.” left out

The subject of the next series is 293T cells. Briefly: Live/dead staining assay in microfluidic device after Docetaxel exposure, 293T cells. It is filed as cell-based. Also noted: dose or concentration left out as unconfirmed. The settings on record: Docetaxel for 2 hours, 48 hours after seeding; live/dead assay at T0, 5, 24, 48 hours. As to the method:
as §1, with “Docetaxel, at different concentrations (1 uM, 10 uM and 100 uM), was flown into the microfluidics device for 5 minutes, following the cell accommodation period.” left out
Custom assays for cells vitality evaluation were applied. […]
as §3

The conditions of series [6]: in vivo; cited from earlier work.
Series [7] has as its system Non-small cell lung carcinoma patients. The settings on record: patients first treated with Alectinib, then replaced with Crizotinib; cited from earlier work.
Series [8] has as its system pleural effusion samples from Non-small cell lung carcinoma patients. Briefly: CSRA of patient pleural effusion samples, Propidium iodide cell viability. The settings on record: 15 μM, 24-hour exposure; samples from 8 patients. It is filed as cell-based, human. The procedure:
The drug response of pleural effusion samples taken from 8 Non-small cell lung carcinoma patients was tested in a preliminary experiment. […] The genomic analysis could not predict however development of resistance. For each of the samples, the cells were first uploaded into the chip for a 24-hour acclimation period after which the cells were exposed different drugs. The 24 hours response to two […], Alectinib and Crizotinib (15 μM) is shown herein. Cell viability was measured using Propidium iodide, which dyes the nuclei of dead cells (magenta). It was known that the biopsies originated from patients that were treated with Alectinib and Crizotinib, however their response to each treatment was not known nor the order in which the drugs were administered, in order to avoid any sort of confirmation bias when collecting and analyzing the data. The moment when the pleural effusions were collected during the treatments was neither known. Crizotinib, like Alectinib is an ALK inhibitor and works by operating as a competitive inhibitor to the ATP binding site of the tyrosine kinase enzyme that the ALK gene codes for and in doing so prevents its carcinogenic activity. […] At the end of the 24-hour exposure period, the data from the experiments was analyzed and calculated to determine the survival and or mortality rate of the cells.

“Also recorded” adds a separate entry of the source. Where two headings read alike, the source gives them in different places.

Turning to `COc1cccc2c1C(=O)c1c(O)c3c(c(O)c1C2=O)C[C@@](O)(C(=O)CO)C[C@@H]3O[C@H]1C[C@H](N)[C@H](O)[C@H](C)O1` [Doxorubicin], the “cells showing morphological features of apoptotic/necrotic processes” value in the series with MCF-7 cells [1] is “about 98%”. Besides, in the series on MCF-7 cells [2], the “dose dependence of sensitivity of MCF-7 cells” value (shortened to “dose dependence”) is “dose dependence sensitivity was observed” and the “mortality rate of MCF-7 cells versus drug dose” value is “mortality rate increased starting from the lower dose of drug (0.1 mM) (p<0.05)”. For the same compound, in [3], the “morphological features of apoptotic/necrotic processes” value is “almost absent”.
On to `CN(Cc1cnc2nc(N)nc(N)c2n1)c1ccc(C(=O)N[C@@H](CCC(=O)O)C(=O)O)cc1` [Methotrexate], for which, in the series with MCF-7 cells [2], the “dose dependence” value is reported as “dose dependence sensitivity was observed” and the “mortality rate of MCF-7 cells versus drug dose” value is on record as “mortality rate increased starting from the lower dose of drug (0.1 mM) (p<0.05)”.
One may read the mortality as the share of the test organisms that died. Consider `CC(=O)O[C@@]12CO[C@@H]1C[C@H](O)[C@@]1(C)C(=O)[C@H](O)C3=C(C)[C@@H](OC(=O)[C@H](O)[C@@H](NC(=O)OC(C)(C)C)c4ccccc4)C[C@@](O)([C@@H](OC(=O)c4ccccc4)[C@H]21)C3(C)C` [Docetaxel], for which, in the series on MCF7 cells, the “mortality rate of MCF7 cells post drug exposure” value is “significantly increased (p<0.05) within 5 hours post drug exposure with no further increase in mortality rate up to 48 hours”. Besides, the “cells vitality immediately after 2 hrs of drug exposure (T0 drug)” value in series [4] was “no differences in cells vitality”. Further, the “cells mortality rate twenty hours post cultivation” value in series [4] (20 hours) is given as “following drug exposure a further significant increase was observed (p<0.05)”. In [5] (read-out: Cluster mortality rate (Mean±S.E)), the mortality at 1 µM amounted to 33 ± 5%. Also, the mortality at 1 µM in series [5] (read-out: mortality rate of the dispersed cells population (Mean±S.E)) was determined as 65 ± 6%. In the series with MCF-7 cells [2], the “dose dependence” value is reported as “dose dependence sensitivity was observed” and the “mortality rate of MCF-7 cells versus drug dose” value is “mortality rate increased starting from the lower dose of drug (0.1 mM) (p<0.05)”. In addition, the “mortality rate of 293T cells post drug exposure” value in the series with 293T cells was “increase in mortality rate after 5 hrs (p<0.05) with no further deterioration”.
As for “Infliximab: purified, recombinant DNA-derived chimeric human-mouse IgG monoclonal antibody against TNF-α”, in [6], the serum half-life is 228 h and the “time detectable in serum after infusion treatment” value is listed as 8 weeks.
Consider `CC(=O)O[C@H]1C(=O)[C@@]2(C)[C@H]([C@H](OC(=O)c3ccccc3)[C@]3(O)C[C@H](OC(=O)[C@H](O)[C@@H](NC(=O)c4ccccc4)c4ccccc4)C(C)=C1C3(C)C)[C@]1(OC(C)=O)CO[C@@H]1C[C@@H]2O` [Paclitaxel], for which, in the series on MCF-7 cells [2], the “dose dependence” value is listed as “dose dependence sensitivity was observed” and the “mortality rate of MCF-7 cells versus drug dose” value was “mortality rate increased starting from the lower dose of drug (0.1 mM) (p<0.05)”.
`C[C@@H](Oc1cc(-c2cnn(C3CCNCC3)c2)cnc1N)c1c(Cl)ccc(F)c1Cl` [Crizotinib]: the “patient response to treatment (patient history)” value in series [7] is “the response was different between patients”. For the same compound, in [8], the “24 hours drug response of patient samples (resistance / sensitivity)” value is “varying sensitivity; also recorded: varying from resistance to medium or high response”.
`CCc1cc2c(cc1N1CCC(N3CCOCC3)CC1)C(C)(C)c1[nH]c3cc(C#N)ccc3c1C2=O` [Alectinib]: in [7], the “patient response to treatment (patient history)” value is reported as “developed resistance”. Moreover, the “24 hours drug response of patient samples (resistance / sensitivity)” value in series [8] is on record as “All samples were resistant; also recorded: all the patients were resistant”.
